System: SCPJU
Experiment: Post-emergence foliar-applied weed control, greenhouse (Example I)
Format: in vivo, Schoenoplectus juncoides (Roxb.) Palla
Text: Evaluation of Post-emergence Foliar-Applied Herbicidal Mixtures for Weed Control in Direct Seeded Rice
Seeds or nutlets of the desired test plant species were planted in a soil matrix prepared by mixing a loam or sandy loam soil (e.g., 28.6 percent silt, 18.8 percent clay, and 52.6 percent sand, with a pH of about 5.8 and an organic matter content of about 1.8 percent) and calcareous grit in an 80 to 20 ratio. The soil matrix was contained in plastic pots with a volume of 1 quart and a surface area of 83.6 square centimeters (cm^2). When required to ensure good germination and healthy plants, a fungicide treatment and/or other chemical or physical treatment was applied. The plants were grown for 8-22 days in a greenhouse with an approximate 14 h photoperiod which was maintained at about 29° C. during the day and 26° C. during the night. Nutrients (Peters Excel® 15-5-15 5-Ca 2-Mg and iron chelate) were applied in the irrigation solution as needed and water was added on a regular basis. Supplemental lighting was provided with overhead metal halide 1000-Watt lamps as necessary. The plants were employed for testing when they reached the first through fourth true leaf stage.
Treatments consisted of the acid or esters of 4-amino-3-chloro-5-fluoro-6-(4-chloro-2-fluoro-3-methoxy-phenyl)pyridine-2-carboxylic acid (Compound A), each formulated as an SC (suspension concentrate), and various herbicidal components alone and in combination. Forms of Compound A were applied on an acid equivalent basis.
Other herbicidal components were applied on an active ingredient basis and included 4-hydroxyphenyl pyruvate dioxygenase (HPPD)-inhibiting herbicides mesotrione formulated as Callisto®, sulcotrione formulated as Mikado®, pyrazolynate formulated as Sunbird® 10% GR, and benzobicyclon formulated as Benzobicyclon 3.5%.
Treatment requirements were calculated based upon the rates being tested, the concentration of active ingredient or acid equivalent in the formulation, and a 12 mL application volume at a rate of 187 L/ha.
For treatments comprised of formulated compounds, measured amounts of compounds were placed individually in 25 mL glass vials and diluted in a volume of 1.25% (v/v) Agri-Dex® crop oil concentrated to obtain 12× stock solutions. […] Application solutions were prepared by adding an appropriate amount of each stock solution (e.g., 1 mL) and diluted to the appropriate final concentrations with the addition of 10 mL of an aqueous mixture of 1.25% (v/v) crop oil concentrate so that the final spray solutions contained 1.25+/−0.05% (v/v) crop oil concentrate.
For treatments comprised of formulated and technical compounds, weighed amounts of the technical materials were placed individually in 25 mL glass vials and dissolved in a volume of 97:3 v/v acetone/DMSO to obtain 12× stock solutions, and measured amounts of the formulated compounds were placed individually in 25 mL glass vials and diluted in a volume of 1.5% (v/v) crop oil concentrate or water to obtain 12× stock solutions. […] Application solutions were prepared by adding an appropriate amount of each stock solution (e.g., 1 mL) and diluted to the appropriate final concentrations with the addition of an appropriate amount of an aqueous mixture of 1.5% (v/v) crop oil concentrate so that the final spray solutions contained 1.25% (v/v) crop oil concentrate. As required, additional water and/or 97:3 v/v acetone/DMSO was added to individual application solutions so that the final acetone and DMSO concentrations of the application solutions being compared were 8.1% and 0.25%, respectively.
All stock solutions and applications solutions were visually inspected for compound compatibility prior to application. Spray solutions were applied to the plant material with an overhead Mandel track sprayer equipped with a 8002E nozzles calibrated to deliver 187 L/ha over an application area of 0.503 m^2 at a spray height of 18 to 20 inches (46 to 50 cm) above average plant canopy height. […]

| SMILES | Visual Weed Control (%) - 20 DAA SCPJU Obs (4.38 gae/ha) [%] | Visual Weed Control (%) - 20 DAA SCPJU Obs (8.75 gae/ha) [%] | Visual Weed Control (%) - 22 DAA SCPJU Obs (5.3 gae/ha) [%] | Visual Weed Control (%) - 22 DAA SCPJU Obs (10.6 gae/ha) [%] |
| --- | --- | --- | --- | --- |
| COc1c(Cl)ccc(-c2nc(C(=O)OCc3ccccc3)c(Cl)c(N)c2F)c1F [Compound A Benzyl Ester, benzyl ester of 4-amino-3-chloro-5-fluoro-6-(4-chloro-2-fluoro-3-methoxy-phenyl)pyridine-2-carboxylic acid] | 30 | 60 |  |  |
| COc1c(Cl)ccc(-c2nc(C(=O)O)c(Cl)c(N)c2F)c1F [Compound A Acid, 4-amino-3-chloro-6-(4-chloro-2-fluoro-3-methoxyphenyl)-5-fluoropyridine-2-carboxylic acid] |  |  | 60 | 75 |

Source: US8841233B2, “Herbicidal compositions comprising 4-amino-3-chloro-5-fluoro-6-(4-chloro-2-fluoro-3-methoxyphenyl) pyridine-2-carboxylic acid or a derivative thereof and 4-hydroxyphenyl-pyruvate dioxygenase (HPPD) inhibitors” (Dow Agrosciences LLC, priority 2012, dated 2014)
